≈ marks a conversion by molar mass, not a printed value. Read-outs that look alike come from different tables or passages of the source.
Key:
[1] = tested on: S. pneumoniae PRSP CIP 104471; assay: Antibacterial activity (MIC/MBC); format: cell-based, Streptococcus pneumoniae
[2] = tested on: Staphylococcus aureus MSSA CIP 4.83; assay: Antibacterial activity (MIC/MBC); format: cell-based; details: S. aureus MSSA CIP 4.83
[3] = tested on: E. faecalis VRE CIP 104676; assay: Antibacterial activity (MIC/MBC); format: cell-based, Enterococcus faecalis; details: E. faecalis VRE CIP 104676
[4] = tested on: S. pneumoniae PRSP clinical isolate; assay: Antibacterial activity (MIC/MBC); format: cell-based, Streptococcus pneumoniae
H. influenzae CIP 102514 = assay: Antibacterial activity (MIC/MBC); format: cell-based, Haemophilus influenzae
[5] = Stability in solution at pH 7 (HPLC purity over time); format: physicochemical; details: pH 7, 37° C.
Protocol: The stability of the aminoquinoline-cephalosporin_hybrid molecules given as examples was determined in solution at 37° C., at physiological pH (pH 7, phosphate buffer/acetonitrile, 75/25 v/v) and at acidic pH (pH 1, 0.1 M HCl/ethanol, 70/30 v/v) by high pressure liquid chromatography coupled to a UV-visible detector (Beckman Coulter ODS C18 column, 5 μm, 4.6×250 mm; eluents: A: 0.1% TFA, B: CH3CN/H2O 90/10 0.1% TFA, gradient: from 10% to 100% of B in 30 minutes, and then 100% of B for 10 minutes, flow rate 1 mL/minutes, λ=254 nm, volume injected: 10 μL).

[6] = tested on: Human lung fibroblast cells (ATCC CCL-171); assay: Cytotoxicity (MTT) assay; details: for % of survival cells compared to the untreated controls: 18 hr treatment
Protocol: Cellular toxicity was measured by a colorimetric assay that makes use of the tetrazolium salt, MTT. Human lung fibroblast cells (ATCC CCL-171) were plated in 96-well plates at 10^4 cells per well and incubated under 5% CO2 at 37° C. for 24 hr to allow adherence of cells to the plate. Test compounds were prepared as a stock solution at 1 mg/mL in 1% DMSO/water and diluted with water for the serial dilutions (500-7.8 μg/mL). Cells underwent a 18 hr treatment under 5% CO2 at 37° C. with experimental drugs. Corresponding controls received either no drug treatment or treatment with SDS (sodium dodecyl sulfate). The optical density of each sample was read on a microplate spectrophotometer reader at 600 nm and cell survival was expressed as a fraction of that of untreated controls. A drug is said cytotoxic when this fraction is ≦−30%

[7] = Staphylococcus aureus, read-out: MBC
[8] = Staphylococcus aureus, read-out: MIC
[9] = Streptococcus pneumoniae, read-out: MIC
[10] = Enterococcus faecalis, read-out: MIC
[11] = Streptococcus pneumoniae, PRSP, read-out: MIC
[12] = Haemophilus influenzae, CIP102514

SMILES | MBC [2, 7] | MIC [2, 8] | MBC ([1]; Streptococcus pneumoniae) | MIC [1, 9] | MBC ([3]; Enterococcus faecalis) | MIC [3, 10] | MBC ([4]; Streptococcus pneumoniae) | MIC [4, 11] | MBC (H. influenzae CIP 102514; [12]) | MIC (H. influenzae CIP 102514; [12]) | further results
CC(=O)OCC1=C(C(=O)O)N2C(=O)[C@@H](N)[C@H]2SC1 [7-ACA, 7-aminocephalosporanic acid, reference compound] |  |  |  |  |  |  |  |  |  |  | MIC [1]: 50 µg/mL (≈ 184 µM); MIC [2]: 50 µg/mL (≈ 184 µM); MIC [3]: >50 µg/mL; MIC [4]: 50 µg/mL (≈ 184 µM); MIC (H. influenzae CIP 102514; H. influenzae CIP 102514): 50 µg/mL (≈ 184 µM)
CC(C)(C)C(=O)OCOC(=O)[C@@H]1N2C(=O)[C@@H](NC(=O)C3CCN(c4ccnc5cc(Cl)ccc45)CC3)[C@H]2SC1(C)C [PA 1007, (2S,5R,6R)-6-{[1-(7-Chloroquinolin-4-yl)-piperidine-4-carbonyl]-amino}-3,3-dimethyl-7-oxo-4-thia-1-aza-bicyclo[3.2.0]heptane-2-carboxylic acid 2,2-dimethyl-propionyloxymethyl ester] | 0.49 µg/mL (≈ 0.812 µM) | 0.012 µg/mL (≈ 0.0199 µM) |  |  |  |  |  |  |  |  | 
CC(=O)OCC1=C(C(=O)O)N2C(=O)[C@@H](NC(=O)CCNc3ccnc4cc(Cl)ccc34)[C@H]2SC1 [PA 1037] | > 50 µg/mL | 0.39 µg/mL (≈ 0.772 µM) | 3.12 µg/mL (≈ 6.18 µM) | 1.56 µg/mL (≈ 3.09 µM) | 25 µg/mL (≈ 49.5 µM) | 6.25 µg/mL (≈ 12.4 µM) | 6.25 µg/mL (≈ 12.4 µM) | 3.12 µg/mL (≈ 6.18 µM) | 25 µg/mL (≈ 49.5 µM) | 6.25 µg/mL (≈ 12.4 µM) | 
CC(=O)OCC1=C(C(=O)O)N2C(=O)[C@@H](NC(=O)CCCNc3ccnc4cc(Cl)ccc34)[C@H]2SC1 [PA 1053, (6R,7R-3-Acetoxymethyl-7-[4-7-chloroquinolin-4-ylamino)-butyrylamino]-8-oxo-5-thia-1-aza-bicyclo[4.2.0]oct-2-ene-2-carboxylic acid] | > 50 µg/mL | 0.78 µg/mL (≈ 1.5 µM) | 3.12 µg/mL (≈ 6.01 µM) | 1.56 µg/mL (≈ 3.01 µM) | > 50 µg/mL | 25 µg/mL (≈ 48.2 µM) | 6.25 µg/mL (≈ 12 µM) | 3.12 µg/mL (≈ 6.01 µM) | 25 µg/mL (≈ 48.2 µM) | 6.25 µg/mL (≈ 12 µM) | 
CC(=O)OCC1=C(C(=O)O)N2C(=O)[C@@H](NC(=O)CNc3ccnc4cc(Cl)ccc34)[C@H]2[S+]([O-])C1.Cl (stereo partly drawn) [PA 1088, (6R,7R-3-Acetoxymethyl-7-[2-7-chloroquinolin-4-ylamino)acetylamino]-5,8-dioxo-5λ^4-thia-1-aza-bicyclo[4.2.0]oct-2-ene-2-carboxylic acid hydrochloride] |  |  |  |  |  |  |  |  |  |  | Purity of the hybrid molecules (as a percentage) as a function of time (hours) ([5]; time 0 h): 100%; Purity of the hybrid molecules (as a percentage) as a function of time (hours) ([5]; time 1 h): 100%; Purity of the hybrid molecules (as a percentage) as a function of time (hours) ([5]; time 2 h): 100%; Purity of the hybrid molecules (as a percentage) as a function of time (hours) ([5]; time 4 h): 100%; Purity of the hybrid molecules (as a percentage) as a function of time (hours) ([5]; time 24 h): 81%
CC(=O)OCC1=C(C(=O)O)N2C(=O)[C@@H](NC(=O)CNc3ccnc4cc(Cl)ccc34)[C@H]2[S+]([O-])C1 (stereo partly drawn) [PA 1092, (6R,7R-3-Acetoxymethyl-7-[2-7-chloroquinolin-4-ylamino)acetylamino]-5,8-dioxo-5λ^1-thia-1-aza-bicyclo[4.2.0]oct-2-ene-2-carboxylic acid] | > 50 µg/mL | 12.5 µg/mL (≈ 24.7 µM) | 3.12 µg/mL (≈ 6.15 µM) | 1.56 µg/mL (≈ 3.08 µM) | > 50 µg/mL | > 50 µg/mL | 12.5 µg/mL (≈ 24.7 µM) | 6.25 µg/mL (≈ 12.3 µM) | 50 µg/mL (≈ 98.6 µM) | 12.5 µg/mL (≈ 24.7 µM) | 
O=C(O)CNc1ccnc2cc(Cl)ccc12 [PA 1117, (7-Chloroquinolin-4-ylamino)acetic acid, reference compound] |  | > 50 µg/mL |  | 50 µg/mL (≈ 211 µM) |  | > 50 µg/mL |  | 50 µg/mL (≈ 211 µM) |  |  | MIC (H. influenzae CIP 102514; Haemophilus influenzae, CIP102514, H. influenzae CIP 102514, read-out: MIC): 50 µg/mL (≈ 211 µM)
CC1(C)S[C@@H]2[C@H](NC(=O)Cc3ccccc3)C(=O)N2[C@H]1C(=O)O [Penicillin G, reference compound] |  |  |  |  |  |  |  |  |  |  | MBC [2]: 0.06 µg/mL (≈ 0.179 µM); MIC [2]: 0.008 µg/mL (≈ 0.0239 µM)
CCCCCCCCCCCCOS(=O)(=O)[O-].[Na+] [SDS, sodium dodecyl sulfate, reference compound] |  |  |  |  |  |  |  |  |  |  | % of survival cells compared to the untreated controls ([6]; 7.8 μg/mL): +2.1%; % of survival cells compared to the untreated controls ([6]; 15.6 μg/mL): −7.0%; % of survival cells compared to the untreated controls ([6]; 31.2 μg/mL): −16.4%; % of survival cells compared to the untreated controls ([6]; 62.5 μg/mL): −77.9%; % of survival cells compared to the untreated controls ([6]; 125 μg/mL): −81.2%; % of survival cells compared to the untreated controls ([6]; 250 μg/mL): −81.1%; % of survival cells compared to the untreated controls ([6]; 500 μg/mL): −83.0%; concentration at which the threshold of cytotoxicity (−30%) is exceeded ([6]; human, 18 hr): ≥ 31200 ng/mL; human lung fibroblast cells killed ([6]; human, 18 hr): more than 80%

From patent US20070060558A1 (PALUMED S.A., priority 2004, published 2007)
